How the values were obtained:
Type in all cases: in vivo, mouse
TAC mice = assay: RT-qPCR of Nmrk2, Nmrk1, Nampt mRNA after TAC; settings: 6 weeks after surgery, NR 400 mg/kg/day
Protocol: Transverse aorta constriction was performed in 2 month-old male mice under anesthesia (ketamine 100 mg/kg, xylazin 16 mg/kg). Skin was opened above the sternum and the upper part of the sternum was cut on a length of 2 mm allowing the mouse to breath without the need of a ventilator. A surgical suture was passed under the aortic cross between the right brachiocephalic (innominate) artery and left common carotid artery and a 27-½ gauge blunt needle was placed parallel to the wall of the aortic cross as a calibrator. Two loose knots were tied around the aortic cross and the needle. The first knot was quickly tied against the needle, followed by the second and the needle was promptly removed in order to produce a constriction of 0.4 mm in diameter. In sham, mice the procedure was the same except for the constriction of the aorta. NR treatment was started 2 days after the TAC or SHAM surgery.
cDNAs were reverse transcribed from RNA (1.5 μg) extracted in TRIzol (Thermofisher) from cell cultures and tissues using the Superscript II Reverse Transcriptase (Life Technologies). Quantitative PCR was carried out on a Light Cycler 480 (Roche Diagnostics) using Fast Start SYBR Green Master (Roche Diagnostics). Quantification of gene expression was calculated as R=2^ΔCt(Ref Cp−target Cp), with Hprt used as a as reference. Primers were designed using the NCBI Primer-BLAST software. […]

Lmna^H222P/H222P mice = assay: Immunoblotting of PARylation, PARP-1, AIF, cleaved-caspase 3 in heart; settings: NR treated Lmna H222P/H222P mice
Protocol: (§1) Mice were bred in an accredited animal facility (accreditation number: C-75-13-08). All experiments on mice were approved by the Comité d'éthique en expérimentation animate Charles Darwin No 5. Mice Lmna^H222P/H222P were backcrossed 8 times to 129S2/SvPasOrlRj strain mice to obtain pure genetic background. Male mice used for the studies were maintained under a 12 h light/12 h dark cycle at constant temperature (23° C.) with free access to food and water. Nicotinamide riboside (NR) complementation: Animals at 17 weeks of age were fed for 9 weeks with either a chow diet (A04: Scientific Animal Food & Engineering) or a chow diet complemented with 0.25% of NR (kindly provided by ChromaDex, Inc. California) corresponding to a dose of 400 mg/kg/day for a mouse weighing 25 g eating 4 g of food per day. […]
Total proteins were extracted in a glass teflon potter from around 5 mg of mouse heart in […] of Cell Lysis Buffer (Cell Signaling) completed with Deacetylation Inhibitors Cocktail (Santa Cruz). Total protein concentration was assessed with BCA™ Protein Assay (Pierce). […] The signal was captured with a CCD camera (G:Box Syngene) and quantified with ImageJ imaging Software (imagej.net).

Lmna^WT/WT mice = assay: NAD+ content quantification in heart and liver of treated wild type mice; settings: NR diet same dosage (400 mg/kg/day), 9 weeks
Protocol: as §1
Fresh mouse tissues were homogenized and processed according to previous report (Sander B J, Oelshlegel F J & Brewer G J (1976) Quantitative analysis of pyridine nucleotides in red blood cells: a single-step extraction procedure. Anal. Biochem. 71: 29-36). The concentration of NAD+ in heart tissue was determined using a spectrophotometric assay at 550 nm based on an alcohol dehydrogenase cycling reaction, in which a Methyl Thiazolyl Tetrazolium (MTT) is reduced to Formazan. […]

NC(=O)c1ccc[n+]([C@@H]2O[C@H](CO)[C@@H](O)[C@H]2O)c1 [NR, nicotinamide riboside]
Nmrk2, Nmrk1 and Nampt mRNA levels (TAC mice): no impact | PARP-1, AIF and cleaved-caspase 3 in heart (Lmna^H222P/H222P mice): activation | PARylation in heart (Lmna^H222P/H222P mice): increase | cellular NAD+ content in liver and heart (Lmna^WT/WT mice): same significant benefit
